“Also recorded” adds a separate entry of the source.
How the values were obtained:
[1] = system: serine proteases active in barnacle cement polymerization; assay: SDS-PAGE protein signature of unpolymerized barnacle glue with and without heparin; format: biochemical; conditions: reducing SDS-PAGE, 4-20% acrylamide gel, Coomassie Blue
Experimental: Techniques were developed and performed to harvest unpolymerized barnacle cement in microliter quantities. This enabled analysis of the proteins in barnacle cement using SDS-PAGE, which separates proteins based on size. SDS-PAGE provides a protein signature. SDS-PAGE was conducted under reducing conditions on a 4-20% acrylamide gradient gel in the presence and absence of heparin to determine any associated changes in protein signature (See FIG. 10). […] A precast, 4-20% acrylamide gel was used and stained with Coomassie Blue. […] The number of protein bands in the 85-115 kDa range is increased and of particular note, the 24 kDa protein and all the smaller peptides have disappeared in the presence of heparin.

barnacles = assay: Barnacle reattachment assay (removal force); format: in vivo
Experimental: A barnacle reattachment assay was performed in the presence and absence of heparin. The barnacle reattachment assay (Rittschof et al., under review) allows for rapid assessment of barnacle adhesive strength. In this assay barnacles are grown on non-toxic silicone substrates. Barnacles are removed from the silicone surface using a hand-held mechanical force gauge. Removed barnacles are then placed on another surface to which they are allowed to reattach for one week. As cement production is continuous throughout a barnacle's life, reattachment is possible and strength of adhesion after one week is nearly identical to initial strength of adhesion (when removed from, and reattached to the same silicone substrate). This assay was utilized to determine if a coating on a surface decreases strength of adhesion by removing a barnacle from silicone and allowing it to reattach to test and control surfaces. Reattachment trials for heparin were conducted by removing a barnacle from a silicone panel and reattaching it to clean glass panels or heparin coated glass panels. […] The reattachment removal force for the barnacles is represented by the gray bars. Barnacles were reattached to glass panels coated with 0 (control), 0.1, 1.0 or 10.0 mg ml^−1 heparin for 7 days. The removal force decreased for all barnacles on heparin treatments. […] This pattern was shown on both heparin coated silicone and heparin coated glass. […] The same group of barnacles was successively reattached to the same treatment for 1, 2, 3 and 4 days (in that order); n=10 barnacles for dH2O and sucrose, n=10 for heparin 1 day, and n=9 for heparin 2, 3 and 4 days. […] Statistical comparisons were not conducted on 2, 3, and 4 day trials as there is a potential for the results to be influenced by previous reattachment trials.

[2] = system: barnacle cement polymerization; assay: Barnacle cement polymerization in presence of anticoagulants, protein profile by SDS-PAGE; format: biochemical; conditions: for inhibition of polymerization of barnacle cement (number and intensity of proteins): 2 μl anticoagulant added to 1 μl unpolymerized cement of thick, gummy phenotype barnacle, 2 minutes, versus distilled water
Experimental: (§1) FIG. 6. Protein profile for barnacle cement polymerized in the presence of distilled water (control) or one of 5 anticoagulants heparin, warfarin, trypsin inhibitor, EGTA or EDTA. Each peak represents an individual protein. For each treatment, 2 μl of either distilled water or anticoagulant was added to 1 μl unpolymerized cement taken from a thick, gummy phenotype barnacle. Polymerization was allowed to proceed for 2 minutes. Samples were analyzed with SDS-PAGE using a 4-20% acrylamide gel. The gel was stained with Coomassie Blue and analyzed using Scion Image.
as §1, with “Each” for “FIG. 6. Protein profile for barnacle cement polymerized in the presence of distilled water (control) or one of 5 anticoagulants heparin, warfarin, trypsin inhibitor, EGTA or EDTA. Each”

heparin was tested, and the “bands smaller than 31 kDa (serine proteases and their peptide products)” value [1] was “do not appear when heparin is added”, the “protein signature of barnacle glue” value [1] was “significantly different” and the “mean removal force versus sucrose” value (barnacles; 1 mg ml^-1 coated T2 silicone, 1 day reattachment, p<0.05) was “significant difference from the sucrose results”. The “reattachment removal force versus initial removal force” value (barnacles; 10 mg ml^-1 heparin coated glass, 7 days, paired samples t-test p=0.017) was “highly significant difference from initial removal force”, the reattachment removal force (barnacles; glass panels coated with 0.1, 1.0 or 10.0 mg ml^-1 heparin, reattached 7 days) was “decreased” and the “force required for removal as concentration increases” value (barnacles; heparin 0.1 to 10 mg ml^-1, heparin coated silicone and heparin coated glass) was “stepwise decrease”. For the same compound, the “removal force over time reattached” value (barnacles; heparin coated surfaces, reattached 1, 2, 3 and 4 days) was “no increase in removal force with increasing time reattached”, the “inhibitory effect on cement polymerization compared with the other anticoagulant compounds tested” value [2] was “most extensive and consistent inhibitory effect” and the “inhibition of polymerization of barnacle cement (number and intensity of proteins)” value (shortened to “inhibition”) [2] was “effectively inhibit the polymerization of barnacle cement”.
With `O=C(O)CN(CCN(CC(=O)O)CC(=O)O)CC(=O)O` [EDTA] the “inhibition” value [2] was “effectively inhibit the polymerization of barnacle cement; also recorded: inhibited”.
In the case of `O=C(O)CN(CCOCCOCCN(CC(=O)O)CC(=O)O)CC(=O)O` [EGTA], the “inhibition” value [2] is reported as “effectively inhibit the polymerization of barnacle cement; also recorded: inhibited”.
`CC(=O)CC(c1ccccc1)c1c(O)c2ccccc2oc1=O` (stereo not drawn) [warfarin] was tested, and the “inhibition” value [2] was “effectively inhibit the polymerization of barnacle cement”.

Source: patent publication US20110041725A1, “ANTICOAGULANTS AS ANTIFOULING AGENTS” (priority 2007, published 2011)
